Reference: patent US9981909B2 (Janssen Pharmaceutica NV, priority 2008, dated 2018)
Counter-ions that a name gives are not always drawn.

Target: rat 5-HT7 receptor (Rattus norvegicus (Rat), UniProt P32305)
Experiment: r5-HT7 binding assay, competitive radioligand binding with [3H]5-CT
Method: Receptor binding was performed using membrane fractions prepared from the HEK-293 cell line recombinantly expressing rat 5-HT7 receptors (NCBI accession NM_022938). Compound affinity for the rat 5-HT7 receptor subtype was evaluated by competitive radioligand binding assays using 5-carboxamido[^3H]tryptamine ([^3H]5-CT) (Amersham Biosciences, cat. 90000403) detection. HitHunter™ cAMP assays are in-vitro based competitive immunoassays. The assay was performed on the HEK-293 cell line stably transfected with r5-HT7 receptor. Cells were pre-incubated with test compounds for 10 minutes. For antagonist testing, the cells were then challenged with 100 nM 5-CT for 20 minutes. Cells were then lysed and cAMP measured according to manufacturers protocol (Amersham, cat. NET791250UC) or [^3H]mesulergine (Amersham, cat. TRK1041). The assay was performed on membranes prepared from HEK-293 cells stably transfected with h5-HT6. Following centrifugation, membranes were resuspended and incubated for 60 min at room temperature with 1.7 nM [^3H]LSD in the presence of increasing concentration of test compounds. Nonspecific binding was defined in the presence of 10 μM clozapine (Tocris, cat. TRK1068). Homogenized HEK-293 membranes expressing the human SERT were incubated in 50 mM Tris-HCl (pH 7.5), 120 mM NaCl, 5 mM KCl with [^3H]-citalopram (3 nM) with or without test compounds. Nonspecific binding was determined in the presence of 10 μM fluoxetine. Radioactivity readouts and Ki values were performed as previously described for r5-HT7. […] Compounds were assayed in their free form or as salts, as indicated in the Examples section above.

[1] = rat 5-HT7 receptor, HEK-293 membranes

Chain of rat 5-HT7 receptor (P32305 1-435): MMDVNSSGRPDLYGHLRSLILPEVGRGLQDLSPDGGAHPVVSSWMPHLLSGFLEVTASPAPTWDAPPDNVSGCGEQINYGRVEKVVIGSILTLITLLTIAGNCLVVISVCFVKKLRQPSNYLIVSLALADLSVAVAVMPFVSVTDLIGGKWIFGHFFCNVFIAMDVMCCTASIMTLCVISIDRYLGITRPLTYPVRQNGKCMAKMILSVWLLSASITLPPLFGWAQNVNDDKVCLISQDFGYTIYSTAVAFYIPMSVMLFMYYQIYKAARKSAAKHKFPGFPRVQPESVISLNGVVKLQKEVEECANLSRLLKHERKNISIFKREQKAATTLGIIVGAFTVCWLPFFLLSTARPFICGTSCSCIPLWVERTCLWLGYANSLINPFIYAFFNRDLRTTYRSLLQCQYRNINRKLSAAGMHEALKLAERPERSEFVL

Row | Ki [1] | Structure (SMILES) | Ki (rat 5-HT7, HEK-293 membranes)
1 | 42 nM | Fc1ccc(COc2ccc(Cl)cc2OC2CNC2)c(F)c1 [Example 57, 3-[5-Chloro-2-(2,4-difluoro-benzyloxy)-phenoxy]-azetidine] | –
2 | 120 nM | Clc1cccc(COc2ccc(Cl)cc2O[C@@H]2CCNC2)c1 [Example 58, (R)-3-[5-Chloro-2-(3-chloro-benzyloxy)-phenoxy]-pyrrolidine] | –
3 | 250 nM | Clc1ccc(OCc2ccccc2Cl)c(O[C@@H]2CCNC2)c1 [Example 60, (R)-3-[5-Chloro-2-(2-chloro-benzyloxy)-phenoxy]-pyrrolidine] | –
4 | 36 nM | CN1CC[C@@H](Oc2cc(Cl)ccc2OCc2ccccc2Cl)C1 [Example 61, (R)-3-[5-Chloro-2-(2-chloro-benzyloxy)-phenoxy]-1-methyl-pyrrolidine] | –
5 | 34 nM | Clc1ccc(OCc2ccccc2)c(OC2CCNCC2)c1 [Example 62, 4-(2-Benzyloxy-5-chloro-phenoxy)-piperidine] | –
6 | 11 nM | Brc1ccc(OCC2CCCCC2)c(OC2CNC2)c1 [Example 74, 3-(5-Bromo-2-cyclohexylmethoxy-phenoxy)-azetidine] | –
7 | 9000 nM | O=C(O)c1cc(COc2ccc(Cl)cc2OC2CNC2)oc1C(F)(F)F [Example 75, 5-[2-(Azetidin-3-yloxy)-4-chloro-phenoxymethyl]-2-trifluoromethyl-furan-3-carboxylic acid trifluoroacetate] | –
8 | 5000 nM | CCOC(=O)c1cc(COc2ccc(Cl)cc2OC2CNC2)oc1C(F)(F)F [Example 76, 5-[2-(Azetidin-3-yloxy)-4-chloro-phenoxymethyl]-2-trifluoromethyl-furan-3-carboxylic acid ethyl ester] | –
9 | 710 nM | Cc1cc(COc2ccc(Cl)cc2OC2CNC2)c(C(F)(F)F)o1 [Example 78, 3-[5-Chloro-2-(5-methyl-2-trifluoromethyl-furan-3-ylmethoxy)-phenoxy]-azetidine] | –
10 | > 10000 nM | Cc1nc(C(F)(F)F)ccc1COc1ccc(Cl)cc1OC1CNC1 [Example 80, 3-[2-(Azetidin-3-yloxy)-4-chloro-phenoxymethyl]-2-methyl-6-trifluoromethyl-pyridine] | –
11 | 198 nM | FC(F)(F)c1ccc(COc2ccc(Cl)cc2OC2CNC2)cn1 [Example 82, 5-[2-(Azetidin-3-yloxy)-4-chloro-phenoxymethyl]-2-trifluoromethyl-pyridine] | –
12 | 240 nM | Clc1ccc(OCc2cnco2)c(OC2CNC2)c1 [Example 87, 5-[2-(Azetidin-3-yloxy)-4-chloro-phenoxymethyl]-oxazole] | –
13 | 681 nM | Clc1ccc(OCc2nccs2)c(OC2CNC2)c1 [Example 88, 2-[2-(Azetidin-3-yloxy)-4-chloro-phenoxymethyl]-thiazole] | –
14 | 27 nM | C[C@H](Oc1ccc(Cl)cc1OC1CN(C)C1)c1cccc(C(F)(F)F)c1 [Example 103, (S)-3-[5-Chloro-2-[1-(3-trifluoromethyl-phenyl)-ethoxy]-phenoxy]-1-methyl-azetidine] | –
15 | 166 nM | C[C@H](Oc1ccc(Cl)cc1OC1CN(Cc2ccccc2)C1)c1cccc(C(F)(F)F)c1 [Example 104, (S)-1-Benzyl-3-[5-chloro-2-[1-(3-trifluoromethyl-phenyl)-ethoxy]-phenoxy]-azetidine] | –
16 | 456 nM | CC(Oc1ccc(Cl)cc1OC1CNC1)c1cncs1 (stereo not drawn) [Example 132, 5-[1-[2-(Azetidin-3-yloxy)-4-chloro-phenoxy]-ethyl]-thiazole] | –
17 | 591 nM | CC(Oc1ccc(Cl)cc1OC1CNC1)c1nccs1 (stereo not drawn) [Example 133, 2-[1-[2-(Azetidin-3-yloxy)-4-chloro-phenoxy]-ethyl]-thiazole] | –
18 | 3830 nM | Cc1nc(C)c(C(C)Oc2ccc(Cl)cc2OC2CNC2)s1 (stereo not drawn) [Example 134, 5-[1-[2-(Azetidin-3-yloxy)-4-chloro-phenoxy]-ethyl]-2,4-dimethyl-thiazole] | –
19 | 189 nM | C[C@@H](Oc1ccc(Cl)cc1OC1CCCNC1)c1cccc(C(F)(F)F)c1 (stereo partly drawn) [Example 139, (R,S)-3-[5-Chloro-2-[1-((R)-3-trifluoromethyl-phenyl)-ethoxy]-phenoxy]-piperidine] | –
20 | 215 nM | FCC(Oc1ccc(Cl)cc1OC1CNC1)c1ccccc1 (stereo not drawn) [Example 143, 3-[5-Chloro-2-(2-fluoro-1-phenyl-ethoxy)-phenoxy]-azetidine] | –
21 | 211 nM | CCC(Oc1ccc(Cl)cc1OC1CNC1)c1ccccc1 (stereo not drawn) [Example 147, 3-[5-Chloro-2-(1-phenyl-propoxy)-phenoxy]-azetidine] | –
22 | 2000 nM | OCC(Oc1ccc(Cl)cc1OC1CNC1)c1ccccc1 (stereo not drawn) [Example 148, 2-[2-(Azetidin-3-yloxy)-4-chloro-phenoxy]-2-phenyl-ethanol] | –

Row | Ki [1] | Structure (SMILES) | Ki (rat 5-HT7, HEK-293 membranes)
23 | > 10000 nM | O=C(O)C(Oc1ccc(Cl)cc1OC1CNC1)c1ccccc1 (stereo not drawn) [Example 149, [2-(Azetidin-3-yloxy)-4-chloro-phenoxy]-phenyl-acetic acid hydrochloride] | –
24 | 5000 nM | CC(C)(C)c1ccc2c(c1)CCC2Oc1ccc(Br)cc1OC1CNC1 (stereo not drawn) [Example 162, 3-[5-Bromo-2-(5-tert-butyl-indan-1-yloxy)-phenoxy]-azetidine] | –
25 | 766 nM | Clc1ccc(OCC2CCOC2)c(OC2CNC2)c1 (stereo not drawn) [Example 163, 3-[5-Chloro-2-(tetrahydro-furan-3-ylmethoxy)-phenoxy]-azetidine] | –
26 | 1270 nM | Clc1ccc(OCC2CCCO2)c(OC2CNC2)c1 (stereo not drawn) [Example 166, 3-[5-Chloro-2-(tetrahydro-furan-2-ylmethoxy)-phenoxy]-azetidine] | –
27 | 167 nM | Clc1ccc(OCC2COc3ccccc3C2)c(OC2CNC2)c1 (stereo not drawn) [Example 167, 3-[5-Chloro-2-(chroman-3-ylmethoxy)-phenoxy]-azetidine] | –
28 | 119 nM | Clc1ccc(OCC2Cc3ccccc3O2)c(OC2CNC2)c1 (stereo not drawn) [Example 169, 3-[5-Chloro-2-(2,3-dihydro-benzofuran-2-ylmethoxy)-phenoxy]-azetidine] | –
29 | 5000 nM | Cc1cc(COc2ccc(Cl)cc2OC2CNC2)n(C)n1 [Example 170, 5-[2-(Azetidin-3-yloxy)-4-chloro-phenoxymethyl]-1,3-dimethyl-1H-pyrazole] | –
30 | 5000 nM | Fc1cccc(COc2ccc(Br)cc2OC2CN(c3ccccc3)C2)c1 [Example 172, 3-[5-Bromo-2-(3-fluoro-benzyloxy)-phenoxy]-1-phenyl-azetidine] | –
31 | 360 nM | ON=C1c2ccccc2CC1Oc1ccc(Cl)cc1OC1CNC1 (stereo not drawn) [Example 179, 2-[2-(Azetidin-3-yloxy)-4-chloro-phenoxy]-indan-1-one oxime] | –
32 | 813 nM | CON=C1c2ccccc2CC1Oc1ccc(Cl)cc1OC1CNC1 (stereo not drawn) [Example 180, 2-[2-(Azetidin-3-yloxy)-4-chloro-phenoxy]-indan-1-one O-methyl-oxime] | –
33 | 110 nM | O=C(COc1ccc(Cl)cc1OC1CNC1)c1ccc(Cl)cc1 [Example 183, 2-[2-(Azetidin-3-yloxy)-4-chloro-phenoxy]-1-(4-chloro-phenyl)-ethanone] | –
34 | 138 nM | Clc1cccc(C2(COc3ccc(Cl)cc3OC3CNC3)CCC2)c1 [Example 189, 3-[5-Chloro-2-[1-(3-chloro-phenyl)-cyclobutylmethoxy]-phenoxy]-azetidine] | –
35 | 1420 nM | Fc1cc(Cl)cc(OC2CNC2)c1OCc1ccccc1 [Example 197, 3-(2-Benzyloxy-5-chloro-3-fluoro-phenoxy)-azetidine] | –
36 | 1460 nM | Fc1cc(Cl)cc(OC2CNC2)c1OCc1ccc(C(F)(F)F)o1 [Example 198, 3-[5-Chloro-3-fluoro-2-(5-trifluoromethyl-furan-2-ylmethoxy)-phenoxy]-azetidine] | –
37 | 66 nM | Fc1ccc(OCc2cccc(Cl)c2)c(OC2CNC2)c1 [Example 202, 3-[2-(3-Chloro-benzyloxy)-5-fluoro-phenoxy]-azetidine hydrochloride] | –
38 | 27 nM | CC(C)N1CC(Oc2cc(F)ccc2OCc2cccc(Cl)c2)C1 [Example 204, 3-[2-(3-Chloro-benzyloxy)-5-fluoro-phenoxy]-1-isopropyl-azetidine] | –
39 | 27 nM | Fc1ccc(OCc2cccc(Cl)c2)c(OC2CN(C3CCC3)C2)c1 [Example 205, 3-[2-(3-Chloro-benzyloxy)-5-fluoro-phenoxy]-1-cyclobutyl-azetidine] | –
40 | 21 nM | CCCN1CC(Oc2cc(F)ccc2OCc2cccc(Cl)c2)C1 [Example 206, 3-[2-(3-Chloro-benzyloxy)-5-fluoro-phenoxy]-1-propyl-azetidine] | –
41 | 506 nM | Clc1cccc(COc2ccc(-c3ccsc3)cc2OC2CNC2)c1 [Example 210, 3-[2-(3-Chloro-benzyloxy)-5-thiophen-3-yl-phenoxy]-azetidine] | –
42 | 9000 nM | CN(C)C(=O)c1ccc(OCc2cccc(Cl)c2)c(OC2CNC2)c1 [Example 211, 3-(Azetidin-3-yloxy)-4-(3-chloro-benzyloxy)-N,N-dimethyl-benzamide] | –
43 | – | CCC1(Oc2cc(Br)ccc2OCc2cccc(Cl)c2)CNC1 [Example 213, 3-[5-Bromo-2-(3-chloro-benzyloxy)-phenoxy]-3-ethyl-azetidine] | 4590 nM
44 | – | CC1(Oc2cc(Br)ccc2OCc2cccc(C(F)(F)F)c2)CNC1 [Example 217] | 34 nM

Row | Structure (SMILES) | Ki [1] | Ki (rat 5-HT7, HEK-293 membranes)
45 | Clc1ccc(OC2CCCC2)c(OC2CNC2)c1 [Example 72, 3-(5-Chloro-2-cyclopentyloxy-phenoxy)-azetidine trifluoroacetate] | 270 nM | –
